The molecules below were run against T1, HCV polymerase (NS5B570n-Con1) (Hepatitis C virus genotype 1b, UniProt Q9WMX2) (assay: biochemical). Settings: IC50 HCV NS5B RNA Polymerase Assay (values with asterisk), values with asterisk: cIRES RNA template, 3 nM NS5B570n-Con1.
T1 construct: contains a 21 amino acid deletion at the C-terminus relative to the full-length HCV polymerase; 6-histidine (N); made in house; host or cells: E. coli strain BL21(DE) pLysS (pET17b)
Set-up: species or system HCV Con1 strain
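Also: recombinant His-tagged enzyme from E. coli, radiolabeled nucleotide incorporation into acid-insoluble RNA read by scintillation after filtration, no-enzyme background subtracted, activity relative to positive control.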

Going from `COC(=O)c1cc(NS(C)(=O)=O)ccc1/C=C/c1cc(-c2cc(F)c[nH]c2=O)cc(C(C)(C)C)c1OC` [I-186] to `COCCc1cc(NS(C)(=O)=O)ccc1/C=C/c1cc(-c2cc(F)c[nH]c2=O)cc(C(C)(C)C)c1OC` [I-227, N-[4-{(E)-2-[3-tert-Butyl-5-(5-fluoro-2-oxo-1,2-dihydro-pyridin-3-yl)-2-methoxy-phenyl]-vinyl}-3-(2-methoxy-ethyl)-phenyl]-methanesulfonamide], the IC50 falls from 4 nM to 1 nM (4-fold). The second is the more potent here.

First: COc1c(/C=C/c2ccc(NS(C)(=O)=O)cc2)cc(-c2ccc(C)[nH]c2=O)cc1C1(Cl)CC1 [I-265]
Second: COc1c(/C=C/c2ccc(NS(C)(=O)=O)cc2)cc(-c2ccc(C(C)O)[nH]c2=O)cc1C(C)(C)C (stereo not drawn) [I-223, N-[4-((E)-2-{3-tert-Butyl-5-[6-(1-hydroxy-ethyl)-2-oxo-1,2-dihydro-pyridin-3-yl]-2-methoxy-phenyl}-vinyl)-phenyl]-methanesulfonamide]
The IC50 of the first is 5-fold higher: 5 nM for the first, 1 nM for the second. The second is the more potent here.

`COc1c(/C=C/c2ccc(NS(C)(=O)=O)cc2CN2CCOCC2)cc(-c2cc(F)c[nH]c2=O)cc1C(C)(C)C` [I-222, N-(4-{(E)-2-[3-tert-Butyl-5-(5-fluoro-2-oxo-1,2-dihydro-pyridin-3-yl)-2-methoxy-phenyl]-vinyl}-3-morpholin-4-ylmethyl-phenyl)-methanesulfonamide] and `COc1c(/C=C/c2ccc(NS(=O)(=O)CCN3CCCC3)cc2)cc(-c2cc(F)c[nH]c2=O)cc1C(C)(C)C` [I-232, 2-Pyrrolidin-1-yl-ethanesulfonic acid (4-{(E)-2-[3-tert-butyl-5-(5-fluoro-2-oxo-1,2-dihydro-pyridin-3-yl)-2-methoxy-phenyl]-vinyl}-phenyl)-amide] are the same in IC50: 1 nM for the first, 1 nM for the second.

Going from `COc1c(/C=C/c2ccc(NS(=O)(=O)CCCN3CCCC3)cc2)cc(-c2cc(F)c[nH]c2=O)cc1C(C)(C)C` [I-230, 3-Pyrrolidin-1-yl-propane-1-sulfonic acid (4-{(E)-2-[3-tert-butyl-5-(5-fluoro-2-oxo-1,2-dihydro-pyridin-3-yl)-2-methoxy-phenyl]-vinyl}-phenyl)-amide] to `COc1c(/C=C/c2ccc(NS(=O)(=O)CCCN3CCCC3)cc2)cc(-c2ccc(C)[nH]c2=O)cc1C(C)(C)C` [I-235, 3-Pyrrolidin-1-yl-propane-1-sulfonic acid (4-{(E)-2-[3-tert-butyl-2-methoxy-5-(6-methyl-2-oxo-1,2-dihydro-pyridin-3-yl)-phenyl]-vinyl}-phenyl)-amide], the IC50 rises from 6 nM to 12 nM (2-fold).

Going from `COc1c(/C=C/c2ccncc2)cc(-c2ccc[nH]c2=O)cc1C(C)(C)C` [I-240, 3-[3-tert-Butyl-4-methoxy-5-((E)-2-pyridin-4-yl-vinyl)-phenyl]-1H-pyridin-2-one] to `COc1c(/C=C/c2ccccn2)cc(-c2ccc[nH]c2=O)cc1C(C)(C)C` [I-241, 3-[3-tert-Butyl-4-methoxy-5-((E)-2-pyridin-2-yl-vinyl)-phenyl]-1H-pyridin-2-one], the IC50 falls from 5 nM to 3 nM (1.7-fold).

Compared with `COc1c(/C=C/c2ccccc2C(F)(F)F)cc(-c2ccc[nH]c2=O)cc1C(C)(C)C` [I-239, 3-{3-tert-Butyl-4-methoxy-5-[(E)-2-(2-trifluoromethyl-phenyl)-vinyl]-phenyl}-1H-pyridin-2-one], `COc1c(/C=C/c2ccccc2C#N)cc(-c2ccc[nH]c2=O)cc1C(C)(C)C` [I-238, 2-{(E)-2-[3-tert-Butyl-2-methoxy-5-(2-oxo-1,2-dihydro-pyridin-3-yl)-phenyl]-vinyl}-benzonitrile] is 4-fold lower in IC50: 8 nM for the first, 2 nM for the second. The second is the more potent here.

First: CS(=O)(=O)Nc1ccc(/C=C/c2cc(-c3ccc[nH]c3=O)cc(C3(F)CCC3)c2)cc1 [I-271, N-(4-{(E)-2-[3-(1-Fluoro-cyclobutyl)-5-(2-oxo-1,2-dihydro-pyridin-3-yl)-phenyl]-vinyl}-phenyl)-methanesulfonamide]
Second: CS(=O)(=O)Nc1ccc(/C=C/c2cc(-c3ccc[nH]c3=O)cc(C3(Cl)CC3)c2)cc1 [I-274, N-(4-{(E)-2-[3-(1-Chloro-cyclopropyl)-5-(2-oxo-1,2-dihydro-pyridin-3-yl)-phenyl]-vinyl}-phenyl)-methanesulfonamide]
The IC50 of the first is 2-fold higher: 4 nM for the first, 2 nM for the second. The second is the more potent here.

Compared with `COCc1cc(NS(C)(=O)=O)ccc1/C=C/c1cc(-c2ccc(C)[nH]c2=O)cc(C(C)(C)C)c1OC` [I-208, N-(4-{(E)-2-[3-tert-Butyl-2-methoxy-5-(6-methyl-2-oxo-1,2-dihydro-pyridin-3-yl)-phenyl]-vinyl}-3-methoxymethyl-phenyl)-methanesulfonamide], `COc1ccc(-c2cc(/C=C/c3ccc(NS(C)(=O)=O)cc3C(=O)O)c(OC)c(C(C)(C)C)c2)c(=O)[nH]1` [I-211, 2-{(E)-2-[3-tert-Butyl-2-methoxy-5-(6-methoxy-2-oxo-1,2-dihydro-pyridin-3-yl)-phenyl]-vinyl}-5-methanesulfonylamino-benzoic acid] is 4-fold higher in IC50: 1 nM for the first, 4 nM for the second.

First: COc1c(/C=C/c2ccc(NS(=O)(=O)CC(F)(F)F)cn2)cc(-c2cc(F)c[nH]c2=O)cc1C(C)(C)C [I-229, 2,2,2-Trifluoro-ethanesulfonic acid (6-{(E)-2-[3-tert-butyl-5-(5-fluoro-2-oxo-1,2-dihydro-pyridin-3-yl)-2-methoxy-phenyl]-vinyl}-pyridin-3-yl)-amide]
Second: COc1c(/C=C/c2ccc(NS(C)(=O)=O)cc2C(C)(C)O)cc(-c2ccc[nH]c2=O)cc1C(C)(C)C [I-204, N-[4-{(E)-2-[3-tert-Butyl-2-methoxy-5-(2-oxo-1,2-dihydro-pyridin-3-yl)-phenyl]-vinyl}-3-(1-hydroxy-1-methyl-ethyl)-phenyl]-methanesulfonamide]
The IC50 of the first is 2-fold higher: 2 nM for the first, 1 nM for the second.

With `COC(=O)c1cc(NS(C)(=O)=O)ccc1CCc1cc(-c2cc(F)c[nH]c2=O)cc(C(C)(C)C)c1OC` [I-189] the IC50 was 1 nM.

Same assay, conditions: IC50 HCV NS5B RNA Polymerase Assay, values without asterisk; 20 nM NS5B570n-Con1 enzyme, 20 nM cIRES RNA template

`COCCN(C(=O)c1cc(-c2ccc[nH]c2=O)cc(C(C)(C)C)c1OC)C1CC1` [I-31] and `COc1c(C(=O)NC2CCC(N(C)C)CC2)cc(-c2ccc[nH]c2=O)cc1C(C)(C)C` (stereo not drawn) [I-92] are within 1.5-fold of each other in IC50: 2290 nM for the first, 1690 nM for the second.

First: COc1c(NC(=O)c2ccc(NC3CC3)nc2)cc(-c2ccc[nH]c2=O)cc1C(C)(C)C [I-255, N-[3-tert-Butyl-2-methoxy-5-(2-oxo-1,2-dihydro-pyridin-3-yl)-phenyl]-6-cyclopropylamino-nicotinamide]
Second: COCCNc1ccc(C(=O)Nc2cc(-c3ccc[nH]c3=O)cc(C(C)(C)C)c2OC)cn1 [I-254, N-[3-tert-Butyl-2-methoxy-5-(2-oxo-1,2-dihydro-pyridin-3-yl)-phenyl]-6-(2-methoxy-ethylamino)-nicotinamide]
The IC50 of the first is 2-fold lower: 70 nM for the first, 141 nM for the second.

Compared with `COc1c(C(=O)NCc2ccncc2)cc(-c2ccc[nH]c2=O)cc1C(C)(C)C` [I-38], `COc1c(C(=O)Nc2ccc(N(C)C)cc2)cc(-c2ccc[nH]c2=O)cc1C(C)(C)C` [I-41] is 1.6-fold higher in IC50: 932 nM for the first, 1510 nM for the second.

`COc1c(NC(=O)c2ccc(NS(C)(=O)=O)cc2)cc(-c2ccc(C)[nH]c2=O)cc1C(C)(C)C` [I-286] and `COc1c(NC(=O)c2ccc(NS(C)(=O)=O)cc2C)cc(-c2ccc[nH]c2=O)cc1C(C)(C)C` [I-282] are within 1.5-fold of each other in IC50: 19 nM for the first, 13 nM for the second.

First: CC(C)(C)c1cc(/C=C/c2ccc(NS(C)(=O)=O)cn2)c(O)c(-c2ccc[nH]c2=O)c1 [I-167, N-(6-{(E)-2-[5-tert-Butyl-2-hydroxy-3-(2-oxo-1,2-dihydro-pyridin-3-yl)-phenyl]-vinyl}-pyridin-3-yl)-methanesulfonamide]
Second: COc1c(/C=C/c2ccc(NS(C)(=O)=O)nc2)cc(-c2ccc[nH]c2=O)cc1C(C)(C)C [I-172]
The IC50 of the first is 7-fold higher: 21 nM for the first, 3 nM for the second.

`COCCCS(=O)(=O)Nc1ccc(/C=C/c2cc(-c3cc(F)c[nH]c3=O)cc(C(C)(C)C)c2OC)cc1` [I-156] and `COc1c(/C=C/c2ccc(NS(=O)(=O)CC3CC3)cc2)cc(-c2cc(F)c[nH]c2=O)cc1C(C)(C)C` [I-153] are within 1.5-fold of each other in IC50: 6 nM for the first, 8 nM for the second.

`CCc1ccc(-c2cc(C(C)(C)C)ccc2OC)c(=O)[nH]1` [I-105, 3-(5-tert-Butyl-2-methoxy-phenyl)-6-ethyl-1H-pyridin-2-one] and `COc1c(NC(=O)c2ccc(N)cc2OCCN(C)C)cc(-c2ccc[nH]c2=O)cc1C(C)(C)C` [I-284] are within 1.5-fold of each other in IC50: 6350 nM for the first, 6270 nM for the second.

Going from `COc1c(/C=C(/CO)c2ccc(NS(C)(=O)=O)cc2)cc(-c2ccc[nH]c2=O)cc1C(C)(C)C` [I-145] to `COc1c(/C=C(\CO)c2ccc(NS(C)(=O)=O)cc2)cc(-c2ccc[nH]c2=O)cc1C(C)(C)C` [I-149, N-(4-{(Z)-2-[3-tert-Butyl-2-methoxy-5-(2-oxo-1,2-dihydro-pyridin-3-yl)-phenyl]-1-hydroxymethyl-vinyl}-phenyl)-methanesulfonamide], the IC50 falls from 53 nM to 26 nM (2-fold). The second is the more potent here.

Compared with `COc1c(CC(C(N)=O)c2ccc(NS(C)(=O)=O)cc2)cc(-c2ccc[nH]c2=O)cc1C(C)(C)C` (stereo not drawn) [I-178], `COc1c(CC(C#N)c2ccc(NS(C)(=O)=O)cc2)cc(-c2ccc[nH]c2=O)cc1C(C)(C)C` (stereo not drawn) [I-177, N-(4-{2-[3-tert-Butyl-2-methoxy-5-(2-oxo-1,2-dihydro-pyridin-3-yl)-phenyl]-1-cyano-ethyl}-phenyl)-methanesulfonamide] is 1.9-fold lower in IC50: 15 nM for the first, 8 nM for the second. The second is the more potent here.

Going from `COc1c(NC(=O)c2ccc(NCC(F)(F)F)cc2)cc(-c2ccc[nH]c2=O)cc1C(C)(C)C` [I-253, N-[3-tert-Butyl-2-methoxy-5-(2-oxo-1,2-dihydro-pyridin-3-yl)-phenyl]-4-(2,2,2-trifluoro-ethylamino)-benzamide] to `COc1c(NC(=O)c2ccc(N)cc2C(F)(F)F)cc(-c2ccc[nH]c2=O)cc1C(C)(C)C` [I-279], the IC50 rises from 2 nM to 104 nM (52-fold).

Same assay, conditions: read-out: IC50 HCV NS5B RNA Polymerase Assay; values without asterisk; 20 nM NS5B570n-Con1 enzyme, 20 nM cIRES RNA template

Compared with `COc1c(/C=C/c2ccc(N)nc2)cc(-c2cc(F)c[nH]c2=O)cc1C(C)(C)C` [I-174], `COc1c(/C=C/c2ccc(N)nn2)cc(-c2cc(F)c[nH]c2=O)cc1C(C)(C)C` [I-183] is 1.7-fold lower in IC50: 12 nM for the first, 7 nM for the second. The second is the more potent here.

Same assay, conditions: values without asterisk; 20 nM NS5B570n-Con1 enzyme, 20 nM cIRES RNA template; read-out: IC50 HCV NS5B RNA Polymerase Assay

`O=C(O)c1ccc([N+](=O)[O-])cn1` [I-136] gave an IC50 of 5 nM.
